IC50 data for 18 compounds are collected here from ChEMBL document CHEMBL1152167, “Synthesis and cytotoxic activities of 1-benzylidine substituted beta-carboline derivatives” (Bioorg Med Chem Lett, 2008).

Bounds are passed on as bounds.

What all share (type): functional, cell-based
The subject of one experiment is Bel-7402. Briefly: Cytotoxicity against human Bel7402 cells by MTT assay. On the technique in general: Formazan colour is commonly taken as a measure of viable cells.
For a further experiment, the system named is BGC-823. The experiment is described as follows: Cytotoxicity against human BGC823 cells by MTT assay.
The next experiment deals with HepG2. The experiment is described as follows: Cytotoxicity against human HepG2 cells by MTT assay.
The test system of another experiment is HeLa. The experiment is described as follows: Cytotoxicity against human HeLa cells by MTT assay.
In another experiment the test system is A-375. Briefly: Cytotoxicity against human A375 cells by MTT assay.
Another experiment relates to A549. Briefly: Cytotoxicity against human A549 cells by MTT assay.
The test system of a further experiment is 769-P. The experiment is described as follows: Cytotoxicity against human 769-P cells by MTT assay.
Experiment [1] can be described thus: Cytotoxicity against human 786-O cells by MTT assay. Particulars: 786-0.
The subject of a further experiment is HT-29. The experiment is described as follows: Cytotoxicity against human HT-29 cells by MTT assay.
A further experiment has as its system KB. Briefly: Cytotoxicity against human KB cells by MTT assay.

As usually defined, the IC50 is the midpoint of a concentration-inhibition curve. A higher IC50 goes with lower potency. Turning to `Cc1nccc2c1[nH]c1ccccc12` [HARMAN], the IC50 was 151 µM in the experiment on Bel-7402, 215 µM with BGC-823, 115 µM in the experiment with HepG2 and 186 µM in the experiment on HeLa.
For the compound `COc1cc(/C=C/c2nccc3c2[nH]c2ccccc23)cc(OC)c1OC`, the concentration for half-maximal inhibition (IC50) came to 23.9 µM with A-375; 12.8 µM in the experiment with A549; 5.7 µM in the experiment on 769-P; 14.4 µM in [1]; 27.8 µM in the experiment with HT-29; 34.6 µM with Bel-7402. Also, the half-maximal inhibitory concentration (IC50) in the experiment on BGC-823 is 66.2 µM; in the experiment with HepG2, 32.2 µM; with KB, 24.6 µM; in the experiment on HeLa, 50.5 µM.
In the case of `CCCCn1c2ccccc2c2ccnc(/C=C/c3ccc(OC)cc3)c21`, the IC50 in the experiment on A-375 was 59.5 µM; in the experiment with A549, 38.1 µM; in the experiment on 769-P it was 25.2 µM; in experiment [1] it was 67.4 µM; in the experiment with HT-29 it was more than 200 µM; with Bel-7402, 29.7 µM. Also, the IC50 came out at 141 µM in the experiment on BGC-823, 66 µM in the experiment on HepG2, 30.1 µM with KB and 88.8 µM in the experiment on HeLa.
Regarding `CCCCOc1ccc2c3cc[n+](Cc4ccccc4)c(/C=C/c4ccc([N+](=O)[O-])cc4)c3n(CCCc3ccccc3)c2c1`, the IC50 in the experiment with A-375 is 4.5 µM; in the experiment with A549 it was 2.8 µM; in the experiment with 769-P, 3.1 µM; in [1], 2.7 µM; in the experiment with HT-29, 2.5 µM; in the experiment on Bel-7402 it was 1.5 µM. The half-maximal inhibitory concentration (IC50) in the experiment on BGC-823 worked out at 4.1 µM; in the experiment with HepG2, 1.3 µM; in the experiment with KB it was 2.4 µM; in the experiment on HeLa, 2.9 µM.
In the case of `C(=C\c1nccc2c1[nH]c1ccccc12)/c1ccccc1`, the IC50 in the experiment on A-375 came to 71.4 µM; in the experiment with A549 it was 36.7 µM; with 769-P, 7.8 µM; in experiment [1] it was 37.5 µM; with HT-29, 62.9 µM; in the experiment with Bel-7402, 190 µM. The IC50 in the experiment on BGC-823 is more than 200 µM; with HepG2, 171 µM; in the experiment with KB it was more than 200 µM; in the experiment on HeLa it was 139 µM.
Regarding `O=[N+]([O-])c1ccc(/C=C/c2nccc3c4ccccc4n(CCCc4ccccc4)c23)cc1`, the IC50 (in the experiment with A-375; in the experiment with A549; in the experiment on 769-P; in experiment [1]; in the experiment on HT-29; with Bel-7402) was more than 200 µM in each case. The IC50 in the experiment with BGC-823, with HepG2, in the experiment with KB and in the experiment on HeLa was more than 200 µM throughout.
`COc1ccc(/C=C/c2nccc3c2[nH]c2ccccc23)cc1`: the IC50 in the experiment with A-375 was 42.2 µM; with A549 it was 47.1 µM; in the experiment on 769-P it was 25.6 µM; in [1], 12.9 µM; in the experiment on HT-29 it was 21.3 µM; in the experiment with Bel-7402 it was 118 µM. Further, the IC50 in the experiment with BGC-823 was 167 µM; in the experiment on HepG2, 60.5 µM; with KB it was 29.5 µM; with HeLa, 142 µM.
For `Cc1nccc2c3ccccc3n(CCCc3ccccc3)c12`, the IC50 in the experiment on Bel-7402 was 449 µM; with BGC-823 it was 987 µM; in the experiment with HepG2 it was 449 µM; with HeLa it was more than 1000 µM.
For the compound `CCCCOc1ccc2c3cc[n+](Cc4ccccc4)c(/C=C/c4ccc(OC)cc4)c3n(CCCc3ccccc3)c2c1`, the IC50 in the experiment on A-375 amounted to 7.3 µM; in the experiment with A549, 3.4 µM; with 769-P, 8.2 µM; in experiment [1], 4.6 µM; in the experiment on HT-29, 3.2 µM; in the experiment on Bel-7402, 1.6 µM. In addition, the IC50 in the experiment with BGC-823 is 7.1 µM; in the experiment with HepG2, 8.9 µM; in the experiment on KB it was 2.7 µM; in the experiment on HeLa, 6.8 µM.
For `COc1ccc(/C=C/c2nccc3c4ccccc4n(CCCc4ccccc4)c23)cc1`, the IC50 is more than 200 µM with A-375; 127 µM in the experiment with A549; 123 µM in the experiment with 769-P; 92.3 µM in [1]; more than 200 µM with HT-29; more than 200 µM in the experiment on Bel-7402. In addition, the IC50 was more than 200 µM with BGC-823, 186 µM in the experiment with HepG2, 58.9 µM in the experiment on KB and more than 200 µM in the experiment on HeLa.
For `COc1ccc(/C=C/c2c3c(cc[n+]2Cc2ccccc2)c2ccccc2n3CCCc2ccccc2)cc1`, the IC50 with A-375 amounted to 0.68 µM; in the experiment with A549 it was 3.9 µM; with 769-P it was 4.6 µM; in experiment [1] it was 3.2 µM; in the experiment with HT-29, 4.3 µM; with Bel-7402, 2.9 µM. The IC50 with BGC-823 amounted to 0.46 µM; in the experiment with HepG2, 2.1 µM; with KB, 0.93 µM; in the experiment with HeLa it was 4.5 µM.
On to `COc1ccc(/C=C/c2c3[nH]c4ccccc4c3cc[n+]2Cc2ccccc2)cc1`, for which the IC50 with A-375 was determined as 28.2 µM; with A549 it was 10.8 µM; in the experiment with 769-P, 4.9 µM; in experiment [1] it was 10 µM; in the experiment with HT-29, 9.4 µM; with Bel-7402, 22.5 µM. Also, the IC50 with BGC-823 came out at 22.9 µM; in the experiment with HepG2 it was 9.6 µM; in the experiment with KB it was 17.9 µM; in the experiment on HeLa, 32.1 µM.
For the compound `CCCCn1c2ccccc2c2ccnc(C)c21`, the IC50 worked out at 145 µM in the experiment on Bel-7402, 264 µM with BGC-823, 145 µM in the experiment with HepG2 and 102 µM in the experiment with HeLa.
Consider `CC(=O)n1c2ccccc2c2cc[n+](Cc3ccccc3)c(/C=C/c3ccc([N+](=O)[O-])cc3)c21`, for which the IC50 worked out at 25.3 µM in the experiment on A-375; 7.6 µM in the experiment on A549; 19.8 µM with 769-P; 28.6 µM in [1]; 10.5 µM with HT-29; 17.9 µM in the experiment with Bel-7402. Besides, the IC50 is 14.8 µM in the experiment with BGC-823, 5.2 µM with HepG2, 15.4 µM with KB and 14.4 µM in the experiment with HeLa.
Take `CCCCn1c2ccccc2c2cc[n+](Cc3ccccc3)c(/C=C/c3ccc(OC)cc3)c21`: the IC50 came out at 8.4 µM in the experiment on A-375; 9.1 µM with A549; 5.1 µM in the experiment with 769-P; 11.2 µM in experiment [1]; 7.8 µM in the experiment with HT-29; 7.7 µM with Bel-7402. Besides, the IC50 with BGC-823 stood at 21.8 µM; in the experiment on HepG2, 6.7 µM; in the experiment on KB it was 3.9 µM; with HeLa it was 6.7 µM.
As for `CCCCOc1ccc2c3ccnc(/C=C/c4ccc(OC)cc4)c3n(CCCc3ccccc3)c2c1`, the IC50 in the experiment on A-375 is 64.3 µM; in the experiment with A549 it was 78.6 µM; in the experiment with 769-P, 62.9 µM; in experiment [1], 89.1 µM; in the experiment on HT-29 it was 54.3 µM; with Bel-7402, more than 200 µM. Moreover, the IC50 in the experiment with BGC-823 is more than 200 µM; in the experiment with HepG2, 92.9 µM; in the experiment with KB, 150 µM; with HeLa, 92.3 µM.
For `CC(=O)n1c2ccccc2c2ccnc(/C=C/c3ccc([N+](=O)[O-])cc3)c21`, the 50% inhibitory concentration (IC50) (with A-375; in the experiment on A549; in the experiment on 769-P; in [1]; in the experiment on HT-29; with Bel-7402) was more than 200 µM each time. Also, the IC50 in the experiment on BGC-823 is more than 200 µM; in the experiment with HepG2, 197 µM; in the experiment on KB it was more than 200 µM; with HeLa it was more than 200 µM.
In the case of `CCCCOc1ccc2c3ccnc(/C=C/c4ccc([N+](=O)[O-])cc4)c3n(CCCc3ccccc3)c2c1`, the IC50 (with A-375; with A549; with 769-P; in [1]; in the experiment with HT-29; in the experiment on Bel-7402) was more than 200 µM in each case. Further, the IC50 in the experiment with BGC-823, in the experiment with HepG2, in the experiment on KB and in the experiment on HeLa was more than 200 µM each time.
